The results in this text go back to the METLIN SMRT retention time set (Domingo-Almenara et al. 2019).

A short description of this data set: gradient 5% acetonitrile 3 min, to 50% in 2 min, to 85% in 15 min, held 3 min, 100 µL/min. The conditions noted are these: column: Zorbax Extend-C18 2.1 x 50 mm; eluents: water / acetonitrile, 0.1% formic acid. A digest of the protocol: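 Values are retention times taken from adduct peaks that software picked and an analyst inspected. The pure standards were run as mixtures of ~100 molecules on HPLC linked to a quadrupole time-of-flight mass spectrometer, in positive and negative ionization mode. A Zorbax Extend-C18 column (2.1 × 50 mm, 1.8 μm) was used at 100 μL/min with water and acetonitrile, each including 0.1% formic acid.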
`CC(=O)c1cccc(NC(=O)N2C[C@H](c3nc(-c4ccccc4)no3)[C@@H](C)C2)c1` had an RP-LC retention time of 938 s.
`CC(C)CNc1nc2ccncc2n(Cc2ccccc2)c1=O` yielded an RP-LC retention time of 672 s.
In turn, `Cc1ccc(S(=O)(=O)N2CCN(c3ccc(-c4ccc(F)cc4)nn3)CC2)s1` had an RP-LC retention time of 870 s.
In turn, `Cc1noc(-c2ccnc(-n3cnc(C(=O)NCc4ccc(Cl)cc4)c3)c2)n1` registered an RP-LC retention time of 903 s.
On to `CCCNC(=O)c1nc(C)n(C2CCN(S(C)(=O)=O)CC2)c1C`, for which the RP-LC retention time was 542 s.
Regarding `Cc1cccc(NC(=O)CSc2cc(N3CCCC(C)C3)ncn2)c1` (stereo not given), the RP-LC retention time worked out at 1020 s.
`COCCNC(=O)c1sc2c(cnc3cc4c(cc32)OCO4)c1-c1ccccc1` displayed an RP-LC retention time of 732 s.
For `CN(C)CCn1c2c(c(SCC(=O)Nc3ccccc3Cl)nc1=O)CCC2`, the RP-LC retention time was determined as 624 s.
As for `CCC(C(=O)NC(C)C)n1nc(C)c2nn(-c3ccccc3)c(C)c2c1=O` (stereo not given), the figure is 831 s; as for `O=C(c1ccccn1)N1CC(n2cnnc2C2CCCO2)C1` (stereo not given), 582 s.
The value for `O=[N+]([O-])c1ccc(Sc2ncccn2)c([N+](=O)[O-])c1` was 900 s.
For `Cc1cc(NS(=O)(=O)c2ccc(-c3nnc(C4CCC4)o3)o2)ccc1F`, the RP-LC retention time came to 963 s.
In turn, `Cc1ccccc1NC(=O)CN1C(=O)NC2(CCCCC2)C1=O` registered an RP-LC retention time of 730 s.
Regarding `Cn1cnc2cc(CNC(=O)c3ccc(F)cc3)ccc21`, the RP-LC retention time was determined as 577 s.
As for `Cn1cc(CCN2CCC(C(=O)NCc3cccs3)CC2)c2cccnc21`, the RP-LC retention time came out at 595 s.
In turn, `CCN1CCn2cc(S(=O)(=O)NCc3ccc(C)cc3)cc2C1=O` came in with an RP-LC retention time of 716 s.
`O=C(O)c1cccnc1NCc1cccc(F)c1` showed an RP-LC retention time of 655 s.
As for `O=C(c1ccnnc1)N1C[C@@H](COCC2CC2)[C@H](c2ccncc2)C1`, the figure is 570 s; as for `O=C(NCc1ccc(F)cc1)C1CCCN(C(=O)C2Sc3ccccc3NC2=O)C1` (stereo not given), 759 s; as for `Cn1cnc2cc(CNC(=O)c3ccc4cc[nH]c4c3)ccc21`, 603 s.
Compound `Cc1ccc(Nc2nc(C(=O)NCCc3c(C)noc3C)nc3ccccc23)cc1` yielded an RP-LC retention time of 717 s.
As to `COc1ccc(-n2c(CN3CCN(C(=O)NC(C)(C)C)CC3)nc3cccnc32)cc1`, the RP-LC retention time stood at 640 s.
As for `Cc1ccc(C)c(CNC(=O)C2CCN(CCc3cn(C)c4ncccc34)CC2)c1`, the figure is 639 s; as for `COc1ccc(-c2csc(NC(=O)c3ccc4c(c3)OCCO4)n2)cc1OC`, 963 s; as for `CCS(=O)(=O)c1nc2ccc(NS(=O)(=O)c3ccc4c(c3)CCCC4)cc2s1`, 1010 s.
In turn, `Cc1ccc(NC(=O)Cn2cnc3nc(-c4cccnc4)ncc3c2=O)cc1F` yielded an RP-LC retention time of 656 s.
As for `CCNC(=O)C1(C)CC(c2ccccc2)=NO1` (stereo not given), the RP-LC retention time was 732 s.
Consider `Cc1ccsc1C(=O)N1CCC(N2C(=O)C(OCC3CC3)C23CCCCC3)CC1` (stereo not given), for which the RP-LC retention time was 1020 s.
`Cc1ccc2nc(-c3ccccc3)c(Nc3ccccc3C)n2c1`: the RP-LC retention time was 726 s.
For `CCOc1ccc(N2C(=O)C3N=NN(Cc4nc(-c5ccccc5Cl)no4)C3C2=O)cc1` (stereo not given), the RP-LC retention time was determined as 996 s.
As for `Cc1ccc(-c2cc(C(=O)N3CCC(NC(=O)c4cc(C5CC5)[nH]n4)CC3)[nH]n2)cc1C`, the figure is 698 s.
Turning to `CCOC(=O)CSCC(=O)Nc1nnc(-c2cccc([N+](=O)[O-])c2)s1`, the RP-LC retention time turned out to be 764 s.
For the compound `Cc1cc(N2CCOCC2)nc(N2CCN(C(=O)c3ccc(C(C)(C)C)cc3)CC2)n1`, the RP-LC retention time came to 723 s.
`Cn1c(=O)n(CC(=O)O)c(=O)c2c1nc1n2CCCN1c1ccc(Cl)cc1` showed an RP-LC retention time of 749 s.
For the compound `CC(C)Cn1cc(S(=O)(=O)NCc2cccc(F)c2)c2cccnc21`, the RP-LC retention time is 953 s.
As to `O=C(CCc1c(-c2ccc(Br)cc2)nc2ccccn12)NCc1ccc(F)cc1`, the RP-LC retention time stood at 701 s.
In turn, `COc1ccc(C(=O)N2CC(C(=O)NC3CC3)C(c3ccc(OC)cc3OC)C2)cc1` (stereo not given) yielded an RP-LC retention time of 703 s.
Take `O=C(NCCOc1ccc2nnc(-c3cccc(F)c3)n2n1)c1cc(=O)c2ccccc2o1`: the RP-LC retention time worked out at 682 s.
As for `COc1cccc(-c2cn3ccn(-c4ccccc4)c(=O)c3n2)c1`, the figure is 773 s; as for `COc1ccc(CCNC(=O)C2CC(=O)N(c3n[nH]c4ccccc34)C2)cc1OC` (stereo not given), 657 s; as for `CCNc1nc(C)cc(N2CCN(S(=O)(=O)c3cccc(Cl)c3)CC2)n1`, 725 s.
With `Cc1cccc(-c2noc(Cn3c(=O)n(Cc4cccc(Cl)c4)c(=O)c4sccc43)n2)c1`, the RP-LC retention time turned out to be 1230 s.
Compound `CCCN1C(=O)c2c(C(=O)NCc3ccccc3C)ncn2CC1(C)C(=O)NCCC(C)C` (stereo not given) registered an RP-LC retention time of 883 s.
The compound `O=S(=O)(c1cccc2c(I)cccc12)N1CCCNCC1` yielded an RP-LC retention time of 673 s.
Take `COc1cccc(NC(=O)Cn2c(=O)n(-c3ccccc3)c(=O)c3c2cc(C)n3C)c1`: the RP-LC retention time turned out to be 789 s.
With `CCOc1ccc(NC(=O)C2CCCN(c3nc4ccccc4nc3C(F)(F)F)C2)cc1` (stereo not given), the RP-LC retention time was 1210 s.
Consider `C=CCN1C(=O)COc2ccc(-c3nc(NC(=O)CC)sc3C)cc21`, for which the RP-LC retention time was 846 s.
As for `Cc1ccc(CNC(=O)Cn2c(N3CCOCC3)nc(C)cc2=O)cc1`, the RP-LC retention time worked out at 647 s.
`CC(C)N1C(=O)c2cccnc2Sc2cc(NC(=O)C3CCOC3)ccc21` (stereo not given): the RP-LC retention time turned out to be 680 s.
As for `CN(C)S(=O)(=O)c1ccc(-c2nnc(C(=O)N3CCC(Cc4ccccc4)CC3)o2)cc1`, the figure is 1080 s; as for `CCOc1ccc(S(=O)(=O)N(C)C2CCc3nn(CC4CC4)c(=O)n3CC2)cc1` (stereo not given), 804 s; as for `CCCCc1ccc(NC(=O)CSc2ccc(-c3ccncc3)nn2)cc1`, 718 s.
Compound `CCCC(=O)NC(C)c1nc(-c2ccccc2)no1` (stereo not given) registered an RP-LC retention time of 782 s.
The value for `CCn1nc(C)c(CCN(C)C(=O)c2cc3c(s2)N(C)CCCC3)c1C` was 743 s; that for `Cc1noc([C@@H]2CC(F)(F)CN2C(=O)c2ccco2)n1` was 706 s.
The value for `COc1ccc(S(=O)(=O)N2CCC(CCOc3ccccc3F)C2)cc1` (stereo not given) was 1060 s; that for `Cc1cc(C)c(NC(=O)CN2C(=O)CC(c3cccs3)=Nc3ccccc32)c(C)c1` was 954 s; that for `C=Cc1ccc(Cn2cc(S(=O)(=O)N3CCCCC3)ccc2=O)cc1` was 968 s.
Turning to `O=C(COc1ccc(-c2cnc3ccccc3n2)cc1)NCC1CCCO1` (stereo not given), the RP-LC retention time came out at 726 s.
`Cc1nc2c(NC(=O)NCc3ccccc3)cccn2n1` yielded an RP-LC retention time of 707 s.
In the case of `O=C(O)c1ccc2c(c1)CC(=O)N2Cc1cccc(F)c1`, the RP-LC retention time stood at 729 s.
Consider `CC(C)CN1CCC(N2CC(COc3ccccc3)C3(CCOCC3)C2)CC1` (stereo not given), for which the RP-LC retention time turned out to be 574 s.
Consider `COc1ccc2c(c1)CCc1sc(NC(=O)c3ccc(C)cc3)nc1-2`, for which the RP-LC retention time was determined as 1150 s.
Regarding `COc1cccc(-c2nc(-c3ccc(-n4ccnc4)nc3)no2)c1`, the RP-LC retention time amounted to 736 s.
For `COc1ccc(NC(=O)NC2CCN(c3cc(N4CCCC4)cnn3)C2)c(C)c1` (stereo not given), the RP-LC retention time was 626 s.
For `O=C(Cc1ccccc1Cl)NC1CCN(c2cc(-c3cccs3)[nH]n2)C1` (stereo not given), the RP-LC retention time is 738 s.
Turning to `O=C(c1ccccc1Cl)N1CCN(Cc2noc3ccccc23)CC1`, the RP-LC retention time worked out at 755 s.
As for `Cc1cnc(C(=O)NC2C[C@H]3CC[C@@H](C2)N3C(=O)c2cc(C)n(C)n2)cn1` (stereo not given in full), the figure is 614 s.
The compound `Cc1cccc(N2CCN(Cc3nc(-c4ccc(N5CCCCC5)nc4)no3)CC2)c1` showed an RP-LC retention time of 965 s.
As for `COc1ccccc1-c1nc2nccc(-c3ccc(Cl)cc3)n2n1`, the figure is 956 s; as for `O=C(CSc1nnc(-c2ccco2)o1)N1CCCc2ccccc21`, 887 s.
The compound `CCCn1cc(S(=O)(=O)NCc2ccc(F)cc2)c2cccnc21` showed an RP-LC retention time of 912 s.
Regarding `CCN(CC)C(=O)c1ccc2c(c1)nnn2CCNC(=O)Nc1ccc(Br)c(C)c1`, the RP-LC retention time amounted to 785 s.
The value for `Cc1nc2cccnc2n1C1CCN(C(=O)Nc2ccc3c(c2)OCCO3)C1` (stereo not given) was 573 s.
For the compound `Cc1ccc2c(c1)-c1onc(C(=O)N3CCN(c4ccccn4)CC3)c1CO2`, the RP-LC retention time came out at 747 s.
Turning to `O=C(CN1c2ccc(F)cc2-c2ccccc2S1(=O)=O)Nc1cccc(F)c1`, the RP-LC retention time is 982 s.
For `CN(C)c1ccc(-c2nc3cnccn3c2Nc2ccc(Cl)cc2)cc1`, the RP-LC retention time stood at 880 s.
`CCc1nnc(-c2cn(CC(=O)Nc3c(Cl)cc(OC)cc3OC)c3ccccc23)o1` came in with an RP-LC retention time of 909 s.
The value for `Cc1cc(F)ccc1NC(=O)c1cc(C2CC2)n2nccc2n1` was 1030 s; that for `COc1ccc(CC(=O)Nc2c(-c3ccc(F)cc3)nc3ccccn23)cc1` was 645 s.
